Measured values reported in US20090082350A1, “SOLUBLE EPOXIDE HYDROLASE INHIBITORS” (Arete Therapeutics, Inc., priority 2007, published 2009).

How the values were obtained:
[1] = test system: soluble epoxide hydrolase (sEH); assay: Fluorescent assay for mouse and human soluble epoxide hydrolase (CMNPC substrate); format: biochemical
Description: Fluorescent Assay for Mouse and Human Soluble Epoxide Hydrolase
Recombinant mouse sEH (MsEH) and human sEH (HsEH) were produced in a baculovirus expression system as previously reported. Grant et al., J. Biol. Chem., 268:17628-17633 (1993); Beetham et al., Arch. Biochem. Biophys., 305:197-201 (1993). The expressed proteins were purified from cell lysate by affinity chromatography. Wixtrom et al., Anal. Biochem., 169:71-80 (1988). Protein concentration was quantified using the Pierce BCA assay using bovine serum albumin as the calibrating standard. The preparations were at least 97% pure as judged by SDS-PAGE and scanning densitometry. They contained no detectable esterase or glutathione transferase activity which can interfere with the assay. The assay was also evaluated with similar results in crude cell lysates or homogenate of tissues.
The IC50s for each inhibitor were according to the following procedure:
Cyano(2-methoxynaphthalen-6-yl)methyl (3-phenyloxiran-2-yl)methyl carbonate (CMNPC; Jones P. D. et. al.; Analytical Biochemistry 2005; 343: pp. 66-75)
Bis/Tris HCl 25 mM pH 7.0 containing 0.1 mg/mL of BSA (buffer A)
CMNPC at 0.25 mM in DMSO.
Mother solution of enzyme in buffer A (Mouse sEH at 6 μg/mL and Human sEH at […]).
Inhibitor dissolved in DMSO at the appropriate concentration.
In a black 96 well plate, fill all the wells with 150 μL of buffer A.
Add 2 μL of DMSO in well A2 and A3, and then add 2 μL of inhibitor solution in A1 and A4 through A12.
Add […] of buffer A in row A, then mix several time and transfer 150 L to row B. Repeat this operation up to row H. The 150 L removed from row H go to the trash.
Add […] of buffer A in column 1 and 2, then add […] of enzyme solution to column 3 to 12.
Incubate the plate for 5 minutes in the plate reader at 30° C.
During incubation prepare the working solution of substrate by mixing 3.68 mL of buffer A (4×0.920 mL) with 266 μL (2×133 μL) of substrate solution).
At t=0, add 30 L of working substrate solution with multi-channel pipette labeled “Briggs 303” and start the reading ([S]final: 5 μM).
Read with ex: 330 nm (20 nm) and em: 465 nm (20 nm) every 30 second for 10 minutes. The velocities are used to analyze and calculate the IC50s.

[2] = inhibitor concentration 5000 nM
[3] = inhibitor concentration 50000 nM

In the case of `O=C(Nc1cccc(C(F)(F)F)c1)Nc1cc(C(=O)N2CCOCC2)cs1` [Compound 14, 1-(4-(morpholine-4-carbonyl)thiophen-2-yl)-3-(3-(trifluoromethyl)phenyl)urea], the melting point is reported as 210 to 215 °C and the “% Inh” value [1, 2] is reported as 89%.
With `CC(=O)Nc1ccc(NC(=O)Nc2ccc(Cl)cc2)cn1` [Compound 6, N-(5-(3-(4-chlorophenyl)ureido)pyridin-2-yl)acetamide] the melting point was 269 to 271 °C and the “% Inh” value ([1]; inhibitor concentration 500 nM) was 87%.
In the case of `CC(=O)Nc1ccc(NC(=O)NC23CC4CC(CC(C4)C2)C3)cn1` [Compound 4, N-(5-(3-adamantylureido)pyridin-2-yl)acetamide], the melting point is reported as 252 to 254 °C and the “% Inh” value ([1]; inhibitor concentration 50 nM) is reported as 77%.
For `CCOC(=O)c1cnc(NC(=O)NC23CC4CC(CC(C4)C2)C3)s1` [Compound 21, ethyl 2-(3-adamantylureido)thiazole-5-carboxylate], the “% Inh” value ([1]; inhibitor concentration 500 nM) was 97%.
In the case of `O=C(Nc1cncc(C(=O)N2CCOCC2)c1)Nc1cccc(C(F)(F)F)c1` [Compound 24, 1-(5-(morpholine-4-carbonyl)pyridin-3-yl)-3-(3-(trifluoromethyl)phenyl)urea], the melting point is reported as 75 to 80 °C and the “% Inh” value [1, 2] is reported as 60%.
With `COc1ccc(-c2nnc(NC(=O)Nc3cccc(C(F)(F)F)c3)s2)cc1` [Compound 10, 1-(5-(4-methoxyphenyl)-1,3,4-thiadiazol-2-yl)-3-(3-(trifluoromethyl)phenyl)urea] the melting point was 331 to 336 °C and the “% Inh” value ([1]; inhibitor concentration 12500 nM) was 39%.
In the case of `COc1ccc(-c2cc(NC(=O)Nc3cccc(C(F)(F)F)c3)[nH]n2)cc1` [Compound 5, 1-(3-(4-methoxyphenyl)-1H-pyrazol-5-yl)-3-(3-(trifluoromethyl)phenyl)urea], the melting point is reported as 189 to 194 °C and the “% Inh” value [1, 2] is reported as 92%.
With `COc1ccc(-c2cc(NC(=O)Nc3ccc(Cl)cc3)on2)cc1` [Compound 22, 1-(4-chlorophenyl)-3-(3-(4-methoxyphenyl)isoxazol-5-yl)urea] the melting point was 165 to 170 °C and the “% Inh” value [1, 2] was 92%.
With `O=C(Nc1cccc(C(F)(F)F)c1)Nc1cccc(C(=O)N2CCOCC2)n1` [Compound 20, 1-(6-(morpholine-4-carbonyl)pyridin-2-yl)-3-(3-(trifluoromethyl)phenyl)urea] the melting point was 175 to 179 °C and the “% Inh” value [1, 3] was 96%.
With `O=C(Nc1ccc(C(F)(F)F)cc1)Nc1cc(C(=O)N2CCOCC2)cs1` [Compound 13, 1-(4-(morpholine-4-carbonyl)thiophen-2-yl)-3-(4-(trifluoromethyl)phenyl)urea] the melting point was 250 to 253 °C and the “% Inh” value ([1]; inhibitor concentration 50 nM) was 73%.
For `COc1ccc(NC(=O)NC23CC4CC(CC(C4)C2)C3)cn1` [Compound 7, 1-adamantan-1-yl-3-(6-methoxypyridin-3-yl)urea], the melting point was 205 to 211 °C and the “% Inh” value ([1]; inhibitor concentration 50 nM) was 64%.
In the case of `O=C(Nc1ccc(C(F)(F)F)cc1)Nc1ccc(Oc2ccccc2)nc1` [Compound 15, 1-(6-phenoxypyridin-3-yl)-3-(4-(trifluoromethyl)phenyl)urea], the “% Inh” value ([1]; inhibitor concentration 50 nM) is reported as 90%.
In the case of `CCOC(=O)c1nnc(NC(=O)NC23CC4CC(CC(C4)C2)C3)s1` [Compound 26, ethyl 5-(3-adamantylureido)-1,3,4-thiadiazole-2-carboxylate], the “% Inh” value ([1]; inhibitor concentration 50 nM) is reported as 91%.
In the case of `O=C(Nc1ccc(Cl)cc1)Nc1cc(C(=O)N2CCOCC2)ccn1` [Compound 19, 1-(4-chlorophenyl)-3-(4-(morpholine-4-carbonyl)pyridin-2-yl)urea], the melting point is reported as 189 to 192 °C and the “% Inh” value ([1]; inhibitor concentration 500 nM) is reported as 72%.
In the case of `O=C(Nc1ccc(C(F)(F)F)cc1)Nc1cncc(C(=O)N2CCOCC2)c1` [Compound 23, 1-(5-(morpholine-4-carbonyl)pyridin-3-yl)-3-(4-(trifluoromethyl)phenyl)urea], the melting point is reported as 114 to 118 °C and the “% Inh” value ([1]; inhibitor concentration 500 nM) is reported as 75%.
In the case of `O=C(Nc1ccc(Cl)cc1)Nc1cccc(C(=O)N2CCOCC2)n1` [Compound 18, 1-(4-chlorophenyl)-3-(6-(morpholine-4-carbonyl)pyridin-2-yl)urea], the melting point is reported as 205 to 208 °C and the “% Inh” value [1, 3] is reported as 87%.
In the case of `O=C(Nc1ccc(Oc2ccccc2)nc1)NC12CC3CC(CC(C3)C1)C2` [Compound 16, 1-adamantan-1-yl-3-(6-phenoxypyridin-3-yl)urea], the melting point is reported as 185 to 188 °C and the “% Inh” value ([1]; inhibitor concentration 50 nM) is reported as 95%.
For `O=C(Nc1ncc(C(=O)O)s1)NC12CC3CC(CC(C3)C1)C2` [Compound 25, 2-(3-adamantylureido)thiazole-5-carboxylic acid], the “% Inh” value [1, 3] was 81%.
For `O=C(Nc1ccc(C(F)(F)F)cc1)Nc1cccc(C(=O)N2CCOCC2)n1` [Compound 12, 1-(6-(morpholine-4-carbonyl)pyridin-2-yl)-3-(4-(trifluoromethyl)phenyl)urea], the melting point was 208 to 210 °C and the “% Inh” value [1, 3] was 96%.
In the case of `COc1ccc(-c2cc(NC(=O)NC34CC5CC(CC(C5)C3)C4)[nH]n2)cc1` [Compound 1, 1-adamantan-1-yl-3-(3-(4-methoxyphenyl)-1H-pyrazol-5-yl)urea], the “% Inh” value [1, 2] is reported as 89%.
For `O=C(Nc1ccc(C(F)(F)F)cc1)Nc1ccc(C(=O)N2CCOCC2)s1` [Compound 3, 1-(5-(morpholine-4-carbonyl)thiophen-2-yl)-3-(4-(trifluoromethyl)phenyl)urea], the melting point was 250 to 253 °C and the “% Inh” value ([1]; inhibitor concentration 50 nM) was 98%.
For `COc1ccc(-c2cc(NC(=O)Nc3ccc(C(F)(F)F)cc3)[nH]n2)cc1` [Compound 2, 1-(3-(4-methoxyphenyl)-1H-pyrazol-5-yl)-3-(4-(trifluoromethyl)phenyl)urea], the melting point was 228 to 231 °C and the “% Inh” value ([1]; inhibitor concentration 500 nM) was 89%.
With `O=C(Nc1ccc(Cl)cc1)Nc1ccc(C(=O)N2CCOCC2)s1` [Compound 11, 1-(4-chlorophenyl)-3-(5-(morpholine-4-carbonyl)thiophen-2-yl)urea] the melting point was 242 to 245 °C and the “% Inh” value ([1]; inhibitor concentration 50 nM) was 76%.
With `O=C(Nc1ccc(C(F)(F)F)cc1)Nc1ccc(C(=O)N2CCOCC2)cn1` [Compound 8, 1-(5-(morpholine-4-carbonyl)pyridin-2-yl)-3-(4-(trifluoromethyl)phenyl)urea] the melting point was 233 to 237 °C and the “% Inh” value ([1]; inhibitor concentration 500 nM) was 69%.
For `COc1ccc(-c2nnc(NC(=O)NC34CC5CC(CC(C5)C3)C4)s2)cc1` [Compound 9, 1-adamantan-1-yl-3-(5-(4-methoxyphenyl)-1,3,4-thiadiazol-2-yl)urea], the melting point was 324 to 328 °C and the “% Inh” value [1, 3] was 37%.
For `O=C(Nc1ccc(C(F)(F)F)cc1)Nc1cc(C(=O)N2CCOCC2)ccn1` [Compound 17, 1-(4-(morpholine-4-carbonyl)pyridin-2-yl)-3-(4-(trifluoromethyl)phenyl)urea], the melting point was 200 to 206 °C and the “% Inh” value ([1]; inhibitor concentration 500 nM) was 91%.
